Measurements: the supplement of paper PMC11562712

Assay: first-order primary biodegradation rate constant k (sorption-corrected, fDis-corrected) (d-1); higher = faster biodegradation
Outline: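 Each of 129 compounds was spiked at 1 μg L^–1 into river water containing sieved sediment (50 g wet solid L^–1) from German, Swiss, Spanish and Greek river segments, then shaken in darkness at 20.5 ± 3.5 °C, the river water temperature, for 10 days in three replicates. Filtered samples of the water phase were measured by ultra-high-performance liquid chromatography coupled to Orbitrap tandem mass spectrometry. First-order k values came from log peak-area regression, corrected for sorption-control dissipation under azide sterilisation and divided by dissolved fraction, and invalid fits were left out.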

[1] = river segment: Germany (DE) H_Contam, incubation temperature 24 °C
[2] = river segment: Germany (DE) T_Contam, incubation temperature 24 °C
[3] = river segment: Germany (DE) T_Pris, incubation temperature 24 °C
[4] = river segment: Greece (EL) A_Contam, incubation temperature 19 °C
[5] = river segment: Greece (EL) G_Pris, incubation temperature 19 °C
[6] = river segment: Greece (EL) L_Contam, incubation temperature 19 °C
[7] = river segment: Spain (ES) B_Contam, incubation temperature 24 °C
[8] = river segment: Spain (ES) C_Contam, incubation temperature 24 °C
[9] = river segment: Spain (ES) L_Contam, incubation temperature 24 °C
[10] = river segment: Switzerland (CH) C_Contam, incubation temperature 17 °C
[11] = river segment: Switzerland (CH) R_Contam, incubation temperature 17 °C
[12] = river segment: Switzerland (CH) U_Contam, incubation temperature 17 °C
[13] = river segment: Switzerland (CH) U_Pris, incubation temperature 17 °C
[14] = river segment: Greece (EL) G_Contam, incubation temperature 19 °C
[15] = river segment: Spain (ES) F_Pris_Salt, incubation temperature 24 °C

SMILES	first-order primary biodegradation rate constant k [1]	first-order primary biodegradation rate constant k [2]	first-order primary biodegradation rate constant k [3]	first-order primary biodegradation rate constant k [4]	first-order primary biodegradation rate constant k [5]	first-order primary biodegradation rate constant k [6]	first-order primary biodegradation rate constant k [7]	first-order primary biodegradation rate constant k [8]	first-order primary biodegradation rate constant k [9]	first-order primary biodegradation rate constant k [10]	first-order primary biodegradation rate constant k [11]	first-order primary biodegradation rate constant k [12]	first-order primary biodegradation rate constant k [13]	first-order primary biodegradation rate constant k [14]	first-order primary biodegradation rate constant k [15]
Cc1ccc2n[nH]nc2c1 [5-Methylbenzotriazole]	0.0462	0.0831	0.00627	0.327	0.771	0.219	0.0714	0.102	0.219	0.0095	0.134	0.139	0.282	–	–
NC(=O)N1c2ccccc2C=Cc2ccccc21 [Carbamazepine]	–	0.0377	–	0.00808	–	0.00883	–	0.00861	0.711	–	–	–	–	–	–
CCOc1ccccc1OCCN[C@H](C)Cc1ccc(OC)c(S(N)(=O)=O)c1 [Tamsulosin]	0.0512	–	0.204	0.786	–	–	0.121	0.261	0.41	0.0347	0.0781	0.0824	0.0624	1.15	–
COCCc1ccc(OCC(O)CNC(C)C)cc1 (stereo not drawn) [Metoprolol]	0.297	0.215	0.165	0.291	0.258	0.42	0.253	0.218	0.252	0.177	0.263	0.332	0.606	0.171	0.241
COc1ccc(NS(=O)(=O)c2ccc(N)cc2)nn1 [Sulfamethoxypyridazine]	0.0977	0.382	–	0.161	0.441	0.195	–	–	1.07	0.0233	–	–	0.0441	0.396	–
CC(C)NCC(O)COc1ccc(CC(N)=O)cc1 (stereo not drawn) [Atenolol]	0.299	0.901	0.3	0.39	0.147	0.665	2.88	–	0.568	0.114	0.395	0.508	0.447	0.342	0.0637
CCN1CCCC1CNC(=O)c1cc(S(=O)(=O)CC)c(N)cc1OC (stereo not drawn) [Amisulpride]	0.0111	0.266	0.0301	0.501	0.106	–	0.0427	–	0.00307	0.0234	–	0.00879	0.0314	0.129	–
